From patent publication US5194383A, “Process for making L-aminoacylase” (priority 1991, dated 1993)
Read-outs that look alike come from different tables or passages of the source.

Key:
[1] = system: L-amino acylase; assay: Substrate specificity of L-amino acylase (ninhydrin method); format: biochemical, Alcaligenes denitrificans DA181; conditions: for Relative activity (%) L-amino acylase: 37° C., 50 mM Tris-HCl buffer pH 8.0
Procedure: This enzyme may hydrolyze N-acetyl-L-amino acids with a higher reactivity, but hydrolyze the N-acetyl-D-amino acids with a lower reactivity.
(§1) A comparison of the substrate specificity of L-amino acylase of this invention with D-amino acylase is summarized as shown in Table 3.
(§2) The enzyme activity was determined at 37° C. in 50 mM TrisCHl
(§3) buffer pH 8.0 by ninhydrin method.

[2] = system: D-amino acylase; assay: Substrate specificity of D-amino acylase (ninhydrin method); format: biochemical; conditions: D-form of substrate; 37° C., 50 mM Tris-HCl buffer pH 8.0
Procedure: as §1, §2, §3

[3] = system: L-amino acylase; format: biochemical, Alcaligenes denitrificans DA181; conditions: for influence of the ion on the enzyme: in words, 30 minutes at 37° C., buffer A
Procedure: Various metal ions were incubated with an appropriate amount of enzyme for 30 min in 50 mM Tris-HCl pH 8.0. The remaining activity was determined by ninhydrin method.

[4] = system: L-aminoacylase by Aspergillus; conditions: conventional Aspergillus enzyme; cited from earlier work
[5] = metal ion 1 mM, 30 min, 50 mM Tris-HCl pH 8.0
[6] = metal ion 10^-1 mM, 30 min, 50 mM Tris-HCl pH 8.0, 100 µM
[7] = metal ion 10^-2 mM, 30 min, 50 mM Tris-HCl pH 8.0, 10 µM
[8] = metal ion 10^-3 mM, 30 min, 50 mM Tris-HCl pH 8.0, 1 µM

Row | Compound | Relative activity (%) L-amino acylase ([1]; L-form of substrate) [%] | Relative activity (%) D-amino acylase [2] [%] | Relative activity (%) L-amino acylase ([1]; D-form of substrate) [%] | relative activity of L-amino acylase (%) [3, 5] [%] | other results
1 | CC(=O)N[C@@H](CCC(=O)O)C(=O)O [N-acetyl-glutamic acid] | 0.12 |  |  |  | 
2 | CC(=O)N[C@@H](Cc1c[nH]cn1)C(=O)O [N-acetyl-histidine] | 0.08 |  |  |  | 
3 | CC(=O)N[C@@H](C(=O)O)c1ccccc1 [N-acetyl-phenylglycine] |  | 5 | 0 |  | 
4 | CC(=O)N[C@@H](CC(=O)O)C(=O)O [N-acetyl-aspartic acid] | 1 |  |  |  | 
5 | [Cl-].[Cl-].[Mg+2] [MgCl2] |  |  |  | 98 | 
6 | [Cl][Ni][Cl] [NiCl2] |  |  |  | 95 | 
7 | [Cl][Fe][Cl] [FeCl2] |  |  |  | 15 | influence of the ion on the enzyme [3]: inhibited
8 | [Cl][Cu][Cl] [CuCl2] |  |  |  | 5 | influence of the ion on the enzyme [3]: inhibited; relative activity of L-amino acylase (%) [3, 6]: 77%; relative activity of L-amino acylase (%) [3, 7]: 90%; relative activity of L-amino acylase (%) [3, 8]: 94%
9 | CC(C)[C@H](NC(=O)CCl)C(=O)O [N-chloroacetyl-valine] | 100 | 66 | 0.8 |  | 
10 | [Cl-].[Cl-].[Zn+2] [ZnCl2] |  |  |  | 61 | influence of the ion on the enzyme [3]: inhibited
11 | [Co+2] [cobalt ions] |  |  |  |  | enzyme activation [4]: 2.5 fold
12 | CSCC[C@H](NC(C)=O)C(=O)O [N-acetyl-methionine] | 30 | 100 | 0.12 |  | 
13 | CC(C)[C@H](NC(=O)CCl)C(=O)O [N-chloroacetyl-L-valine] |  |  |  |  | reactivity of hydrolysis by the enzyme ([1]; in words): especially high
14 | [Cl][Mn][Cl] [MnCl2] |  |  |  | 86 | 
15 | CC(=O)N[C@@H](CC(N)=O)C(=O)O [N-acetyl-asparagine] | 3 | 17 | 0 |  | 
16 | [Cl-].[Cl-].[Co+2] [CoCl2] |  |  |  | 120 | 

Row | Compound | Relative activity (%) L-amino acylase ([1]; L-form of substrate) [%] | Relative activity (%) D-amino acylase [2] [%] | Relative activity (%) L-amino acylase ([1]; D-form of substrate) [%] | relative activity of L-amino acylase (%) [3, 5] [%] | other results
17 | CC(=O)N[C@@H](CCCNC(=N)N)C(=O)O [N-acetyl-arginine] | 0.04 |  |  |  | 
18 | CC(=O)N[C@@H](Cc1ccccc1)C(=O)O [N-acetyl-phenylalanine] | 34 | 81 | 0.9 |  | 
19 | CC(=O)N[C@H](C(=O)O)C(C)C [N-acetyl-valine] | 95 | 6 | 7 |  | 
20 | CC(=O)N[C@@H](Cc1ccc(O)cc1)C(=O)O [N-acetyl-tyrosine] | 36 |  |  |  | 
21 | [Cl][Hg][Cl] [HgCl2] |  |  |  |  | influence of the ion on the enzyme [3]: inhibited; relative activity of L-amino acylase (%) [3, 8]: 0%; relative activity of L-amino acylase (%) ([3]; metal ion 10^-4 mM, 30 min, 50 mM Tris-HCl pH 8.0, 0.1 µM): 0%
22 | O=C(O)CN(CCN(CC(=O)O)CC(=O)O)CC(=O)O [EDTA.2Na] |  |  |  |  | relative activity of L-amino acylase (%) ([3]; 50 mm tris-hcl, pH 8, 30 min, 1000 µM): 55%
23 | CC(=O)N[C@@H](C)C(=O)O [N-acetyl-alanine] | 78 | 25 | 0 |  | 
24 | [Ba+2].[Cl-].[Cl-] [BaCl2] |  |  |  | 92 | 
25 | [Cl][Pb][Cl] [PbCl2] |  |  |  | 50 | influence of the ion on the enzyme [3]: inhibited; relative activity of L-amino acylase (%) [3, 6]: 71%; relative activity of L-amino acylase (%) [3, 7]: 71%; relative activity of L-amino acylase (%) [3, 8]: 97%
26 | [Cl-].[Cl-].[Sr+2] [SrCl2] |  |  |  | 80 | 
27 | CC(=O)N[C@@H](CC(C)C)C(=O)O [N-acetyl-leucine] | 10 | 60 | 2 |  | 
28 | [Cl][Cd][Cl] [CdCl2] |  |  |  | 16 | influence of the ion on the enzyme [3]: inhibited
29 | CC(=O)N[C@@H](Cc1c[nH]c2ccccc12)C(=O)O [N-acetyl-tryptophan] | 11 | 33 | 0.9 |  | 
30 | [Ca+2].[Cl-].[Cl-] [CaCl2] |  |  |  | 94 | 
31 | CC[C@@H](C)[C@H](NC(C)=O)C(=O)O [N-acetyl-alloisoleucine] |  | 12 | 0 |  | 
